Laboratory results reported in patent US11793781B2, “Autoimmune disorder treatment using RXR agonists” (Io Therapeutics, Inc., priority 2011, dated 2023).

What was measured:
[1] = tested on: experimental autoimmune encephalomyelitis (EAE); assay: EAE in C57BL/6 (B6) mice (MOG peptide); format: in vivo; conditions: 50 ug i.p. every other day from day 7, FIG. 5
Protocol: Mice were also given 200 ng of pertussis toxin in PBS administered by inter-peritoneal (i.p.) injection on the same day as MOG emulsion injection (day 0) and 2 days later (day 2). […] Mice were scored using the following scale: 0—Mice have no disease, 1—Mice have distal limp tail or rear leg weakness (paresis), 1.5—Mice have distal limp tail and rear leg weakness, 2—Mice have complete limp tail and rear leg weakness, 2.5—Mice have complete limp tail and weakness in both rear legs, 3—Mice have complete limp tail and paralysis in both rear legs, 3.5—Mice have complete limp tail, paralysis in both rear legs, and forelimb weakness. Mice receiving a score of 3.5 were immediately euthanized.

RXRγ = molecular target: T1, RXRγ (Homo sapiens, UniProt P48443); assay: RXR homodimer transactivation assay in CV-1 cells (RXRE-tk-Luc); format: cell-based
T1 construct: an expression construct including a full length RXRα, RXRβ, or RXRγ; expressed in transfected cells; host or cells: CV-1 cells
T1 sequence (P48443 1-463): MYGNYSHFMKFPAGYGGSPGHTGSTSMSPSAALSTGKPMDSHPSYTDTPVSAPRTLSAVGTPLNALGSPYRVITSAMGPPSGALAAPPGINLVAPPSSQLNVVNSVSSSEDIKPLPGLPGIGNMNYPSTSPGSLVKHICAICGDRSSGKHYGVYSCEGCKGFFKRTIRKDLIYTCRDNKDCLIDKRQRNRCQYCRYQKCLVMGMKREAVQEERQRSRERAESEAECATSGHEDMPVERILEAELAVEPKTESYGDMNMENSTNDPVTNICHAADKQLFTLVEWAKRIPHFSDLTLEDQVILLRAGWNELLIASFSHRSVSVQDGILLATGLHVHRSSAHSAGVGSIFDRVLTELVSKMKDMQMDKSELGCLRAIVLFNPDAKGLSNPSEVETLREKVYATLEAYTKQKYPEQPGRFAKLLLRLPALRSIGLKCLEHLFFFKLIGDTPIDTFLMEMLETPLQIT
Protocol: To determine whether a RXR agonist can mediate its effects via an RXRα receptor homodimers, RXRβ receptor homodimers, RXRγ receptor homodimers, or any combination thereof, or the corresponding RAR/RXR heterodimers, receptor-mediated transactivation assays were performed. […] Data are mean values±SE from five independent experiments.

FXR/RXR = assay: Permissive RXR heterodimer transactivation; format: cell-based; conditions: appropriate receptor and reporter constructs
[2] = tested on: Naive CD4+ CD25− FoxP3− cells; assay: Th17 cell differentiation conditions: Foxp3 and IL-17A expression; format: cell-based, mouse; conditions: 0, 1, 10, 100 nM, as concentration increased
Protocol: To determine whether a RXR agonist can regulate T cell differentiation, the ability of an RXR agonist to promote Treg cell differentiation and inhibit Th17 cell differentiation under Th17 cell differentiation conditions was assessed by monitoring Foxp3 and IL-17A expression. Naive CD4^+ CD25^− FoxP3^− cells were purified from a Foxp3-GFP mouse using flow cytometry by sorting and isolating based upon a GFP^− phenotype. […] See, e.g., Elias, et al., Retinoic Acid Inhibits Th17 Polarization and Enhances FoxP3 Expression through a Stat-3/Stat-5 Independent Pathway, Blood 111(3): […] (2008). […] FIG. 2A. […] FIG. 2B.

[3] = tested on: CNS infiltrating leukocytes; assay: CNS infiltrating cells in EAE B6 mice (FACS); format: in vivo, C57BL/6 (B6) mice; conditions: day 20, versus vehicle control, FIG. 6
Protocol: To determine whether a RXR agonist can reduce central nervous system (CNS) infiltrating cells, C57BL/6 (B6) mice were treated as described in Example 6. On day 20 after immunization, mice were sacrificed and perfused with phosphate buffered saline (PBS). Brain and spinal cord tissue was isolated, digested with DNase and Liberase DL (Roche Diagnostics, Indianapolis, Ind.) for 30 minutes, and homogenized through 70 micron nylon mesh filters. Resulting cells were placed over a Percoll gradient to remove myelin. The remaining cells (microglia and CNS infiltrating cells) were counted, stained for molecules of interest, and run on a flow cytometer. Based on the frequencies obtained by FACS of these cell populations, total cell numbers of CNS infiltrating leukocytes expressing CD45, including CD4^+ T cells and CD11c^+ CD11b^+ myeloid dendritic cells (DC), were calculated.

RXRs and RARs = assay: Functional transactivation assays, RXRs compared with RARs; format: cell-based
Protocol: To determine whether a RXR agonist can mediate its effects via an RXRα receptor homodimers, RXRβ receptor homodimers, RXRγ receptor homodimers, or any combination thereof, or the corresponding RAR/RXR heterodimers, receptor-mediated transactivation assays were performed. For transactivation assays assessing RXR homodimer signaling, CV-1 cells were transfected with 1) an expression construct including a full length RXRα, RXRβ, or RXRγ; and 2) a rCRBPII/RXRE-tk-Luc reporter construct that included RXR homodimer-specific RXRE/DR1 responsive element linked to a luciferase gene. For transactivation assays assessing RAR/RXR heterodimer signaling, CV-1 cells were transfected with 1) an expression construct comprising a fusion protein including an estrogen receptor (ER) DNA binding domain linked to the ligand binding domain of RARα, RARβ, or RARγ and 2) a ERE-tk-Luc reporter construct that included an estrogen receptor responsive element linked to a luciferase gene. The ER-RAR fusion proteins provided an accurate readout of only the transfected ER-RAR. […] Data are mean values±SE from five independent experiments.

[4] = tested on: experimental autoimmune encephalomyelitis (EAE); assay: EAE in SJL mice (PLP peptide); format: in vivo
Protocol: To determine whether a RXR agonist can attenuate multiple sclerosis, SJL mice were immunized to induce EAE by s.c. injection at the base of their spine with 200 uL of adjuvant containing 200 ug proteolipid proteins (139-151) (PLP peptide; Peptides International, Louisville, Ky.) and 400 ug of non-viable M. tuberculosis H37 desiccate emulsified in a mixture of incomplete Freund's adjuvant and PBS. Mice were also given 150 ng of pertussis toxin in PBS i.p. on the same day as PLP emulsion injection and 2 days later. […] Mice were scored using the scale described in Example 6.

[5] = tested on: Naive CD4+ CD25− FoxP3− cells; assay: Treg cell differentiation conditions: Foxp3 and α4β7 expression; format: cell-based, mouse
Protocol: To determine whether a RXR agonist can induce Treg cell differentiation, the ability of an RXR agonist to promote Treg cell differentiation under Treg cell differentiation conditions was assessed by monitoring Foxp3 and α4β7 expression. Naive CD4^+ CD25^− FoxP3^− cells were purified from a Foxp3-GFP mouse using flow cytometry by sorting and isolating based upon a GFP^− phenotype. These cells were then cultured under Treg cell differentiation conditions by treating the cells with αCD3 and αCD28 polyclonal antibodies in the presence of IL-2 and TGF-β. […] FIG. 1A. […] FIG. 1B.

RXRα = molecular target: T2, RXRα (Homo sapiens, UniProt P19793); assay: RXR homodimer transactivation assay in CV-1 cells (RXRE-tk-Luc); format: cell-based; conditions: 20 hours, luciferase
T2 sequence (P19793 1-462): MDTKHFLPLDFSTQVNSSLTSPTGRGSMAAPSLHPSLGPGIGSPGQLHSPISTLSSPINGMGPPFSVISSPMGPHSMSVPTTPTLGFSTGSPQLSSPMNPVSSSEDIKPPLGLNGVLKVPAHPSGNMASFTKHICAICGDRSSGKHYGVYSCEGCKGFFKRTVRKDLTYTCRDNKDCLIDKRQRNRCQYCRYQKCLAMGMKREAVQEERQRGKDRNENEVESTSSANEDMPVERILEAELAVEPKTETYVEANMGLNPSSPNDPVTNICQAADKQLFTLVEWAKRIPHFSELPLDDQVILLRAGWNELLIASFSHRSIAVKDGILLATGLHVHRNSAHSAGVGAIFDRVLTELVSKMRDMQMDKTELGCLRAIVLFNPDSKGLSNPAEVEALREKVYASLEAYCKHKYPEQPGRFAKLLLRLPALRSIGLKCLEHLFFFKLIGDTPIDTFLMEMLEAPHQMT
From the text: For transactivation assays assessing RXR homodimer signaling, CV-1 cells were transfected with 1) an expression construct including a full length RXRα, RXRβ, or RXRγ; and 2) a rCRBPII/RXRE-tk-Luc reporter construct that included RXR homodimer-specific RXRE/DR1 responsive element linked to a luciferase gene. For transactivation assays assessing RAR/RXR heterodimer signaling, CV-1 cells were transfected with 1) an expression construct comprising a fusion protein including an estrogen receptor (ER) DNA binding domain linked to the ligand binding domain of RARα, RARβ, or RARγ and 2) a ERE-tk-Luc reporter construct that included an estrogen receptor responsive element linked to a luciferase gene. […] Data are mean values±SE from five independent experiments.

PPAR/RXR = assay: Permissive RXR heterodimer transactivation; format: cell-based; conditions: appropriate receptor and reporter constructs
From the text: (§1) This difference represents >2,000-fold selectivity for RXRs over RARs in functional transactivation assays. […] FIG. 4. […] In this regard, RXR agonist 194204 is distinct from other RXR agonists.

LXR/RXR = assay: Permissive RXR heterodimer transactivation; format: cell-based; conditions: appropriate receptor and reporter constructs
From the text: as §1

[6] = 50 ug i.p. every other day from day 7, FIG. 7

## CC(/C=C/[C@@H]1C[C@]1(C)c1ccc2c(c1)C(C)(C)CCC2(C)C)=C\C(=O)O [RXR agonist 194204, 3,7-dimethyl-6(S),7(S)-methano,7-[1,1,4,4-tetramethyl-1,2,3,4-tetrahydronaphth-7-yl]2(E),4(E) heptadienoic acid]
[1]
  symptoms of EAE (disease severity score): significantly reduces the symptoms of EAE
  time course of efficacy: observed after the first administration (day 7) and maintained throughout the course of the study (day 20)
RXRγ
  Efficacy (% of 1 μM 194204) RXRγ: 0.09 ± 0.01 100 % of 1 μM 194204
FXR/RXR
  transactivation of permissive RXR heterodimer FXR/RXR: not to transactivate
[2]; FIG. 2A
  Foxp3 expression: Foxp3 expression increased
[2]; FIG. 2B
  IL-17A expression: IL-17A expression decreased
[3]
  infiltration of CD4+ cells into the CNS: significant reduction
  infiltration of CD11c+ CD11b+ cells (myeloid DC) into the CNS: significant reduction
RXRs and RARs; FIG. 4
  more potent in activating RXR receptors rather than RAR receptors: > 1,000 fold
RXRs and RARs; at ≥1 μM
  activity at RARs: minimal activity
[4]; [6]
  symptoms of EAE (disease severity score): significantly reduces the symptoms of EAE
  time course of efficacy: observed after the second administration (day 8) and maintained throughout the course of the study (day 14)
[4]; 50 ug i.p. every other day from day 7, mice affected/group
  Disease Incidence: 4/6
[4]; 50 ug i.p. every other day from day 7, mice/group
  Death from Disease: 0/6
[4]; 50 ug i.p. every other day from day 7, scale 0-3.5
  Mean Maximum Score: 1.5 ± 1.4
[5]; Treg conditions (αCD3, αCD28, IL-2, TGF-β), concentrations of 1 nM or higher, FIG. 1A
  Foxp3+ T cells induced: ~100%
[5]; Treg conditions, 0.1, 1.0, 10 nM, FIG. 1B
  α4β7 expression: induced expression of α4β7
RXRα
  Efficacy (% of 1 μM 194204) RXRα: 100 % of 1 μM 194204
PPAR/RXR
  transactivation of permissive RXR heterodimer PPAR/RXR: not to transactivate
LXR/RXR
  transactivation of permissive RXR heterodimer LXR/RXR: not to transactivate
